# Data from US20170007620A1 (priority 2015, published 2017).
# Entries after “also recorded” stand apart in the source; their conditions may differ.
# What was measured:
# [1] = tested on: neutered mixed breed dogs; test: Physical symptoms / side effects of DHEA-mediated EGSS with and without reconstitution protocol (Table 1)
# From the text: Physical symptoms associated with DHEA-mediated EGSS-induced Nitric Oxide (NO) depletion.
# [2] = tested on: NO; test: Nitric oxide depletion and replenishment during DHEA-mediated EGSS; assay type: in vivo; settings: animals undergoing DHEA-mediated EGSS
# [3] = tested on: one carbon pool products (AMP, ADP, ATP); test: One carbon pool products (AMP, ADP, ATP) in lymphocytes during DHEA-mediated EGSS (FIG. 5); settings: DHEA 10 mg/kg daily per os 90 days ± reconstitution regimen
# [4] = tested on: statin-treated cells; settings: cited from earlier work
# [5] = tested on: phenylalanine; test: Plasma phenylalanine in DHEA-treated neutered dogs (FIG. 10); settings: DHEA-treated neutered dogs ± reconstitution protocol
# Procedure: Before treatment, 10-15 ml blood samples were taken from male and female neutered dogs, and plasma was collected by low speed centrifugation by the standard method. The method of Neckers, L M et. al. (Clin Chem 27(1):146-8, 1981) was used to quantitate plasma phenylalanine concentrations, with fluorometric detection (280 nm excitation, 330 nm emission), and a 10 ul injection volume.
# [6] = tested on: ubiquinone; test: Ubiquinone concentrations in buffy coat samples of DHEA-treated neutered dogs (FIG. 3); assay type: in vivo
# Procedure: (§1) FIG. 3. […] BH4 was assayed by the method of Niederwieser, A. et. al. (J Chromatogr. 1984 May 4; 290:237-46). For IPA quantitation, preliminary in vitro studies were performed in which DHEA-treated and control HT-29SF cells were exposed to [^3H]-mevalonic acid (saponified; data not shown). Total RNA was then isolated using the guanidinium thiocyanate method, hydrolyzed to free bases and isolated on an Aminex A9 column, with UV detection, as previously described (Nyce, J et. al., Proc Natl Acad Sci USA. 1993 Apr. 1; 90(7):2960-4). Increased incorporation of [^3H]-mevalonic acid into isopentenyladenosine peaks was interpreted as reduced pools of free unlabeled IPA into which the [^3H]-IPA equilibrated with high specific activity. (See Shultz and Nyce, Cancer Research 51(24):6563-7, 1992). This was borne out in in vivo experiments in neutered dogs treated with DHEA in which buffy coat lymphocytes were extracted and IPA quantitated with UV detection using the same HPLC procedure. […] Ubiquinone concentrations were quantitated from buffy coat samples by HPLC via the method of Abe, K. et. al., (J Nutr Sci Vitaminol (Tokyo). 1978; 24(6):555-67). For ease of presentation, pretreatment values for all 3 determinations (BH4, IPA and ubiquinone) were given a value of 1, with treatment values presented as their respective fraction thereof. […]
# [7] = tested on: norepinephrine; test: Urinary free norepinephrine in neutered dogs undergoing DHEA-mediated EGSS (FIG. 9); assay type: in vivo; settings: 24 hour urine, DHEA 10 mg/kg 90 days ± reconstitution regimen
# Procedure: FIG. 9. […] Urinary free norepinephrine was quantitated by the method of Mell, L D and Gustafson, A B (Clin Chem 23(3): 473-6, 1977), using a Waters HPLC system with a C18 reverse phase column and UV detector. 24 hour urine was collected from neutered male and female animals in amber glass containment vessels. To 100 ml of urine was added 1 ml of concentrated HCL as preservative. […] This treatment continued for 90 days, at which time further urine specimens were collected and assayed for norepinephrine. The data are reported as the mean±SEM. MNNor, norepinephrine levels as quantitated in neutered male dogs; FNNor, norepinephrine levels as quantitated in neutered female dogs.
# [8] = tested on: BH4; set-up: species or system dogs; settings: dog, in vivo
# [9] = tested on: serotonin; test: Serotonin in intestinal mucosa biopsies of DHEA-treated neutered dogs (FIG. 7); assay type: in vivo; settings: DHEA 10 mg/kg daily for 90 days ± supplementation
# Procedure: The procedure of D'Souza, L and Glueck, H (Thromb Haemost. 1977 Dec. 15; 38(4):990-1001) was used to quantitate serotonin in intestinal biopsies obtained from neutered male and female dogs. Ten mg of intestinal mucosa was analyzed for each animal. […] Results are presented as percentage of values in pretreatment dogs, mean±SEM. MNSer, serotonin levels as quantitated in neutered male dogs; FNSer, serotonin levels as quantitated in female neutered dogs.
# [10] = tested on: IPA; test: IPA / isopentenylated tRNA quantitation in buffy coat lymphocytes of DHEA-treated neutered dogs (FIG. 3); assay type: in vivo
# Procedure: as §1
# [11] = tested on: estrogen; test: Fecal estrogen in neutered female dogs before and after DHEA-mediated EGSS (FIG. 2); settings: feces, DHEA 10 mg/kg p.o.
# Procedure: Analyses were made in serum isolated from 4 intact male and 4 neutered male dogs of mixed breed, and in 3 intact female and 4 neutered female dogs of mixed breed. All were between 12 months and 24 months of age, and between 10 and 25 kg. […] For female dogs, estrogen was measured in anestrous for intact dogs. For both intact and neutered female dogs, the feces were collected over a period of 30 days, and thereafter the estrogens were extracted and quantitated using the procedure of Hofmann and Mostl (J Reprod Fertil Suppl 57:67-70, 2001). Results are reported as mean±SEM.
# Comparison of testosterone and estrogen in neutered male and female dogs, respectively, before and after DHEA-mediated EGSS. The same neutered dogs from FIG. 1 were utilized. The same methodology was utilized as in FIG. 1. Dogs were exposed to escalating doses of DHEA until normal or near normal levels of testosterone or estradiol were achieved. […] Results are reported as the mean±SEM.
# [12] = animals undergoing DHEA-mediated EGSS
structure (smiles),measurement,setting,value
O=[N+]([O-])[O-].[K+] [potassium nitrate],symptoms associated with NO depletion,[1]; [12],eliminating the symptoms
same,NO level,[2],can replenish NO
Nc1nc(=O)c2c([nH]1)NCC(CNc1ccc(C(=O)N[C@@H](CCC(=O)O)C(=O)O)cc1)N2C=O (mixture of isomers) [folinic acid],"one carbon pool products (purines, pyrimidines, S-adenosylmethionine; AMP, ADP, ATP)",[3],reconstitution
N[C@@H](Cc1ccc(O)c(O)c1)C(=O)O [L-DOPA],emesis,"[1]; dogs, alternative protocol with L-DOPA, pyridoxine, ascorbate, SAMe",emesis in some dogs
CC(C)=CCNc1ncnc2nc[nH]c12 [Isopentenyladenine],activity in restoring DNA synthesis relative to mevalonate,[4],approximately 100 fold
"C[C@]12CC[C@H](O)CC1=CC[C@@H]1[C@@H]2CC[C@]2(C)C(=O)CC[C@@H]12 [DHEA, Dehydroepiandrosterone]","one carbon pool products (purines, pyrimidines, S-adenosylmethionine; AMP, ADP, ATP)",[3],profoundly depleted; also recorded: Depletion
same,plasma phenylalanine levels,[5],Increase
same,motor incoordination,[1]; [12],sometimes occurs
same,lower extremity neuropathy,[1]; animals undergoing DHEA-mediated EGSS with or without supplementation,observed
same,"susceptibility to infections, particularly ear and eye","[1]; dogs and cats, DHEA in amounts sufficient to induce EGSS",have been noted
same,fluid retention,"[1]; dogs, DHEA in amounts sufficient to induce EGSS",has been observed
same,side effects of DHEA-mediated EGSS,[1]; doses required to induce EGSS in neutered animals,capable of causing many serious side effects; also recorded: auto-inflammatory-like disorder
same,vascular effects,[1]; during DHEA-mediated EGSS,induction of vasoconstriction
same,"ubiquinone levels, continuous treatment","[6]; continuous DHEA at doses capable of inducing EGSS, with or without supplementation",decline
same,"ubiquinone levels, short term",[6]; short term DHEA exposure,increased
same,NO level,[2],depleted
same,urinary norepinephrine,[7],Depletion
same,BH4 level,[8],depleted
same,serotonin level,[9],Depletion
same,IPA level,[10]; exogenous DHEA in amounts sufficient to induce EGSS,becomes depleted
same,total pools of isopentenylated tRNA,"[10]; neutered dogs treated with DHEA, buffy coat lymphocytes, HPLC UV",found to be depleted
same,estrogen level,[11],increases
